# Assay results reported in patent US6579880B2, “Isoxazoles and oxadiazoles as anti-inflammatory inhibitors of IL-8” (Ortho-McNeil Pharmaceutical, Inc., priority 2000, dated 2003).
# System: IL-8 receptor (purified human neutrophils)
# Assay: radio labeled IL-8 receptor binding assay in purified human neutrophils using I125-IL-8 as ligand
# Details: Table 1; inhibition of I125-IL-8 (0.125 nM) binding to human neutrophils, 37° C. 60 minutes; read-out: IC50
# Method: Neutrophils are purified from fresh human blood by dextran sedimentation in an equal volume of 3% dextran in saline for 30 minutes. After sedimentation, the blood is centrifuged for 10 minutes at 1000 rpm at 4° C. and the supernate is aspirated and discarded. […] Ten mls ficoll is underlaid of the blood and the sample is centrifuged for 40 minutes at 1400 rpm at 25° C. After centrifugation, the supernate is removed and the cells re-suspended for cell counting. Cell volume is adjusted to 8×10^5 cells/ml in binding buffer without BSA.
# The plates are then incubated at 37° C. for 60 minutes and the supernate is aspirated to within 2 mm of the bottom of the well. The plates are then sealed and counted for 1 minute in a Packard TopCount.
# Drug treated wells are compared to vehicle treated wells for inhibition of binding as determined by a decrease in dpm as compared to the vehicle wells.
# % Inhibition is calculated as follows: [formula]
# IC50 is calculated using K-Graph.
row,Compound,IC50 [µM]
1,"CN1CCN(CCCOc2ccc(-c3cc(-c4ccc(C(C)(C)C)cc4)no3)cc2)CC1 [Compound 4, piperazine, 1-[3-[4-[3-[4-(1,1-dimethylethyl)phenyl]-5-isoxazolyl]phenoxy]propyl]-4-methyl-]",2.7
2,"CN1CCN(CCCOc2ccc(-c3cc(-c4ccc(Cl)c(C(F)(F)F)c4)no3)cc2)CC1 [Compound 8, piperazine, 1-[3-[4-[3-[4-chloro-3-(trifluoromethyl)phenyl]-5-isoxazolyl]phenoxy]propyl]-4-methyl-]",2.7
3,"Clc1ccc(-c2noc(-c3ccc(OCCCN4CCNCC4)cc3)n2)cc1 [Compound 15, piperazine, 1-[3-[4-[3-(4-chlorophenyl)-1,2,4-oxadiazol-5-yl]phenoxy]propyl]-]",2.8

# Same assay, conditions: Table 2; inhibition of I125-IL-8 (0.125 nM) binding to human neutrophils, 37° C. 60 minutes; read-out: IC50
row,Compound,IC50 [µM]
1,Cc1ccc(-c2cc(-c3ccc(OCCCN(C)C)cc3)no2)cc1 [Compound 19],5.1
2,"CN(C)CCCOc1ccc(-c2cc(-c3ccc(Cl)cc3)on2)cc1 [Compound 21, 1-propanamine, 3-[4-[5-(4-chlorophenyl)-3-isoxazolyl]phenoxy]-N, N-dimethyl-]",2.7
3,CN(C)CCCOc1ccc(-c2cc(-c3ccc(F)cc3)on2)cc1 [Compound 22],3.1
4,CN1CCN(CCCOc2ccc(-c3cc(-c4ccccc4)on3)cc2)CC1 [Compound 25],6.2
5,"CN1CCN(CCCOc2ccc(-c3cc(-c4ccc(Cl)cc4)on3)cc2)CC1 [Compound 27, piperazine, 1-[3-[4-[5-(4-chlorophenyl)-3-isoxazolyl]phenoxy]propyl]-4-methyl-]",1.6
6,CN(C)CCCOc1ccc(-c2noc(-c3ccccc3)c2Br)cc1 [Compound 28],10.9
7,CN(C)CCCOc1ccc(-c2noc(-c3ccccc3)c2Cl)cc1 [Compound 29],6
8,CN(C)CCCOc1cccc(-c2cc(-c3ccc(Cl)cc3)on2)c1 [Compound 32],8.1
9,Cc1ccc(-c2cc(-c3cccc(OCCCN(C)C)c3)no2)cc1 [Compound 33],5.1
10,CN(C)CCCOc1cccc(-c2cc(-c3ccccc3)on2)c1 [Compound 34],10.3
11,CN1CCN(CCCOc2ccccc2-c2cc(-c3ccccc3)on2)CC1 [Compound 35],12.1
12,CN1CCN(CCCOc2ccccc2-c2cc(-c3ccc(Cl)cc3)on2)CC1 [Compound 36],5.6
13,CCN(CC)CCCOc1ccccc1-c1cc(-c2ccccc2)on1 [Compound 37],6.5
14,CN(C)CCCOc1ccccc1-c1cc(-c2ccc(Cl)cc2)on1 [Compound 38],4.4
15,CN1CCN(CCCCOc2ccc(-c3cc(-c4ccc(Cl)cc4)on3)cc2)CC1 [Compound 39],8.9
16,CN(C)CCCCOc1ccc(-c2cc(-c3ccc(Cl)cc3)on2)cc1 [Compound 40],3.9
17,CN1CCN(CCCCOc2ccccc2-c2cc(-c3ccc(Cl)cc3)on2)CC1 [Compound 41],11

# Same assay, conditions: Table 3; inhibition of I125-IL-8 (0.125 nM) binding to human neutrophils, 37° C. 60 minutes; read-out: IC50
row,Compound,IC50 [µM]
1,CN1CCCC(COc2ccc(-c3cc(-c4ccccc4)on3)cc2)C1 (stereo not shown) [Compound 43],5.3
2,CN1CCC(Oc2ccc(-c3cc(-c4ccccc4)on3)cc2)CC1 [Compound 44],7.6

# Same assay, conditions: Table 4; inhibition of I125-IL-8 (0.125 nM) binding to human neutrophils, 37° C. 60 minutes; read-out: IC50
row,Compound,IC50 [µM]
1,CN(C)CCCNC(=O)c1ccc(-c2cc(-c3ccc(Cl)cc3)on2)cc1 [Compound 45],5.8
2,CN1CCN(CCCNC(=O)c2ccc(-c3cc(-c4ccc(Cl)cc4)on3)cc2)CC1 [Compound 46],6.1
3,COc1ccc(-c2cc(-c3ccc(C(=O)NCCCN(C)C)cc3)no2)cc1 [Compound 48],18.1

# Same assay, conditions: Table 6; inhibition of I125-IL-8 (0.125 nM) binding to human neutrophils, 37° C. 60 minutes; read-out: IC50
row,Compound,IC50 [µM]
1,"CN(C)CCCNc1ccc(-c2nc(-c3ccc(Cl)cc3)no2)cn1 [Compound 54, 1,3-propanediamine, N^1-[5-[3-(4-chlorophenyl)-1,2,4-oxadiazol-5-yl]-2-pyridinyl]-N^3, N^3-dimethyl-]",5.35
2,CN(C)CCCOc1ccc(-c2nc(-c3ccc(Cl)cc3)no2)cn1 [Compound 55],4.78

# Same assay, conditions: unlabelled IL-8 as standard in the I125-IL-8 binding assay; read-out: IC50 of standard antagonist
row,Compound,IC50 [µM]
1,"Unlabelled IL-8: Unlabelled IL-8 (Interleukin-8, chemotactic cytokine) serves as the standard antagonist in the binding assay [reference compound]",~0.001
